16 compounds from ChEMBL document CHEMBL1137123, “Himbacine analogs as muscarinic receptor antagonists--effects of tether and heterocyclic variations” (Bioorg Med Chem Lett, 2004) can be followed below.

For test [1], the target named is T1, Muscarinic acetylcholine receptor M1 (Homo sapiens, UniProt P11229).
T1 sequence (P11229 whole entry): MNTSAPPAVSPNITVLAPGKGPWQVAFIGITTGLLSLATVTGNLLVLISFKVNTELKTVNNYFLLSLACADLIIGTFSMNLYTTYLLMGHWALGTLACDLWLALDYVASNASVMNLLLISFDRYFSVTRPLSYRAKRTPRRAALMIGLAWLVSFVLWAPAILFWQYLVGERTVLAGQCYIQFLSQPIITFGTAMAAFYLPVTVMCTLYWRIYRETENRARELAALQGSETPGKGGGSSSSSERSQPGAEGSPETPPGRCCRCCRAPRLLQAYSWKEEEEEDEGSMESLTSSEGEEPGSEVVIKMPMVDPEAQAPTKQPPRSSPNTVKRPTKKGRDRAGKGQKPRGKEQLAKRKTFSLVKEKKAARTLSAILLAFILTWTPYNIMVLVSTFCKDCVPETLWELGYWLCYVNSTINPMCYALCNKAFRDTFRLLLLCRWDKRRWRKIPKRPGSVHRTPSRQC
The test can be described thus: In vitro inhibitory activity against cloned human M1 muscarinic receptor.

The target of test [2] is T2, Muscarinic acetylcholine receptor M2 (Homo sapiens, UniProt P08172).
T2 sequence (P08172 whole entry): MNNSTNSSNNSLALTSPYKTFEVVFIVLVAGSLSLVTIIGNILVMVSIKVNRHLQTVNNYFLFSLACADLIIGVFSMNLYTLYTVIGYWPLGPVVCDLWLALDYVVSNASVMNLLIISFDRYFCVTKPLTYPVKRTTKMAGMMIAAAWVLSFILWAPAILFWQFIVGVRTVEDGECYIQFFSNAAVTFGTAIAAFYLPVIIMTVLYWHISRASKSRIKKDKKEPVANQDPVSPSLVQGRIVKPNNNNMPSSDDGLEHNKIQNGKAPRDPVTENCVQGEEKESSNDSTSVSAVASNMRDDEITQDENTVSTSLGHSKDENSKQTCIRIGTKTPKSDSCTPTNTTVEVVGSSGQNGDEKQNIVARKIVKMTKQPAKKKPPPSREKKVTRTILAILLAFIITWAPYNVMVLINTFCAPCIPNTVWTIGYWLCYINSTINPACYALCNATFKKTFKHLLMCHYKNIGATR
Kind of test: In vitro inhibitory activity against cloned human M2 muscarinic receptor.

Regarding `C[C@@H]1OC(=O)[C@H]2C=C3CCCC[C@@H]3/C(=C/CC3CCC(C)(C)N3C)[C@@H]12` (some centres not stated), the Ki amounted to 177 nM in test [1] and 68 nM in test [2].

On to `C[C@@H]1OC(=O)[C@H]2C[C@H]3CCCC[C@@H]3/C(=C/C[C@H]3CCC[C@H](C)N3C)[C@@H]12`, for which the Ki in test [1] amounted to 65.9 nM; in test [2], 13.3 nM.

In the case of `C[C@@H]1OC(=O)[C@H]2C=C3CCCC[C@@H]3[C@@H]([C@@H]3CC4CCC(C)(C)N4O3)[C@@H]12` (some centres not stated), the Ki in test [1] and in test [2] was > 1400 nM in each case.

Take `CCN1C(CCC2[C@H]3[C@H](C)OC(=O)[C@H]3C[C@H]3CCCC[C@H]23)CCC1(C)C` (some centres not stated): the Ki in test [1] turned out to be 811 nM; in test [2] it was 449 nM.

Take `C[C@@H]1OC(=O)[C@H]2C[C@H]3CCCC[C@@H]3C(CCC3CCC(C)(C)N3C)[C@@H]12` (some centres not stated): the Ki worked out at 122 nM in test [1] and 12.2 nM in test [2].

Turning to `C[C@@H]1OC(=O)[C@H]2C[C@H]3CCCC[C@@H]3/C(=C/CC3CCC(C)(C)N3C)[C@@H]12` (some centres not stated), the Ki in test [1] turned out to be 418 nM; in test [2], 43 nM.

As for `C[C@@H]1OC(=O)[C@H]2C[C@H]3CCCC[C@@H]3[C@@H](CC[C@H]3CCC[C@H](C)N3C)[C@@H]12`, the Ki in test [1] amounted to 32 nM; in test [2], 4.3 nM.

Consider `C[C@@H]1OC(=O)[C@H]2C[C@H]3CCCC[C@@H]3[C@@H]([C@@H](O)C[C@H]3CCC(C)(C)N3C)[C@@H]12`, for which the Ki in test [1] and in test [2] was > 1400 nM throughout.

As to `CCN1C(C/C=C2\[C@H]3[C@H](C)OC(=O)[C@H]3C=C3CCCC[C@@H]32)CCC1(C)C` (some centres not stated), the figures for the Ki in test [1] and in test [2] were 640 nM and > 1400 nM, respectively.

With `C[C@@H]1OC(=O)[C@H]2C[C@H]3CCCC[C@@H]3[C@@H](/C=C/[C@@H]3CCC[C@H](C)N3)[C@@H]12`, the Ki in test [1] and in test [2] was > 1400 nM throughout.

Turning to `C[C@@H]1OC(=O)[C@H]2C[C@H]3CCCC[C@@H]3[C@@H](/C(O)=C/[C@H]3CCC[C@H](C)N3C)[C@@H]12`, the Ki in test [1] is 1570 nM; in test [2] it was 203 nM.

Regarding `C[C@@H]1OC(=O)[C@H]2C=C3CCCC[C@@H]3/C(=C/CC3CCC(C)(C)[N+]3(C)C)[C@@H]12` (some centres not stated), the Ki amounted to 446 nM in test [1] and 571 nM in test [2].

Consider `C[C@@H]1OC(=O)[C@H]2C=C3CCCC[C@@H]3[C@@H]([C@@H]3CC4CCC(C)(C)[N+]4(C)O3)[C@@H]12` (some centres not stated), for which the Ki stood at 790 nM in test [1] and 180 nM in test [2].

Regarding `C[C@@H]1OC(=O)[C@H]2C[C@H]3CCCC[C@@H]3[C@@H](CC[C@H]3CCC[C@H](C)N3)[C@@H]12`, the results for the Ki in test [1] and in test [2] were 68 nM and 16 nM, respectively.

`C[C@@H]1OC(=O)[C@H]2C[C@H]3CCCC[C@@H]3[C@@H](/C=C/[C@@H]3CCC[C@H](C)N3C)[C@@H]12`: the Ki in test [1] and in test [2] was > 1400 nM in each case.

For `C[C@@H]1OC(=O)[C@H]2C[C@H]3CCCC[C@@H]3[C@@H](/C=C/[C@H]3CCC[C@H](C)N3C)[C@@H]12` [HIMBACINE], the Ki in test [1] amounted to 48 nM; in test [2], 4.5 nM.

As a reminder, the Ki is a dissociation constant, usually derived from enzyme kinetics or from competition with a known ligand.
